Laboratory results: patent publication US11285218B2, “Degradation of bromodomain-containing protein 9 (BRD9) by conjugation of BRD9 inhibitors with E3 ligase ligand and methods of use” (Dana-Farber Cancer Institute, Inc., priority 2016, dated 2022)
“Also recorded” adds a separate entry of the source.

What was measured:
[1] = test system: 32 members of the human bromodomain family; assay: BromoScan single-point screen, panel profile; assay type: binding; conditions: single-point 1 μM, 32 bromodomains; in words
Description: (§1) The BromoScan is an assay that measures the engagement of compounds with bromodomain proteins by utilizing DNA-tagged bromodomain and immobilized ligand attached to solid support. In the control test, DNA-tagged bromodomain binds to the ligand and the bromodomain is captured on the solid support. Compounds that compete for the bromodomain binding location on the ligand will prevent the bromodomain from binding, resulting in less protein captured on the solid support.

BRD7 [2] = target: BRD7 (Homo sapiens, UniProt Q9NPI1); assay: BRD7 immunoblot in MOLM-13; conditions: MOLM-13, 4 hour treatment
Target sequence in this assay (Q9NPI1 whole entry): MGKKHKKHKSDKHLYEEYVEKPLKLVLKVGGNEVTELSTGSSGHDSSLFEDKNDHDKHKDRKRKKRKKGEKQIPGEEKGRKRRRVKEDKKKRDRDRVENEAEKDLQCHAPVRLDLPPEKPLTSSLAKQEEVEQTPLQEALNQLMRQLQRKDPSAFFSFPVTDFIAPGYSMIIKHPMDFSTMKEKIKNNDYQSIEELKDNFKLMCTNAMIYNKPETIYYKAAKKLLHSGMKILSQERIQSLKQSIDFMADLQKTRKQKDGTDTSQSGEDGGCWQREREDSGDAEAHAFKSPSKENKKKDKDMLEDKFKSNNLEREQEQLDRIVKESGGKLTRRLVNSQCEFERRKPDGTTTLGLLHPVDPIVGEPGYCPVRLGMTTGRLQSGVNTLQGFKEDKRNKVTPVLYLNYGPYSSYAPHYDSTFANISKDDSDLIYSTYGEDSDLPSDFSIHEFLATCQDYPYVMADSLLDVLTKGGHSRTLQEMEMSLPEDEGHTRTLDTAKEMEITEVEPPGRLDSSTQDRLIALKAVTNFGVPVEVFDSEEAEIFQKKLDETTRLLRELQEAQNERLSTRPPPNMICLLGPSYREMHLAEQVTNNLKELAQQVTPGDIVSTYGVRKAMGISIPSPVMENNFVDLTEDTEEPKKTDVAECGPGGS
Description: In additional experiments, cells were washed with PBS, before being lysed in RIPA buffer supplemented with 1×HALT™ protease inhibitor cocktail (Thermo Scientific) for 10 min on ice, followed by low-amplitude sonication for 10 seconds at 4° C. […] In soluble material was removed by centrifugation at 20,000×g for 20 min before protein content was quantified by BCA assay (Pierce). […] Blots were imaged using fluorescence-labeled secondary antibodies (LI-COR) on the OdysseyCLxImager (LI-COR).

[3] = test system: MM.1S multiple myeloma line; assay: ATPlite viability assay, MM.1S; conditions: 72 hour treatment, in words
Description: 500 cells/well were plated at a volume of 40 μL/well in white tissue culture treated 384 well assay plates (Thermo Scientific) before DMSO compound stock was added from pre-diluted plates by pin transfer using a Janus Workstation (PerkinElmer, USA). […] Assay plates were allowed to equilibrate to RT for 30 min before reconstituted ATPlite 1 Step reagent (Perkin Elmer) was dispensed at 1:1 volume/well by EL406 automated liquid handler (Biotek, USA).

TRIM33 (PHD, Bromo.) = assay: BromoScan single-point screen; assay type: binding, human; conditions: percent of protein captured on solid support vs control
Description: as §1

EP300 = target: T1, EP300 (Homo sapiens, UniProt Q09472); assay: BromoScan single-point screen; assay type: binding; conditions: percent of protein captured on solid support vs control
T1 construct: utilizing DNA-tagged bromodomain and immobilized ligand attached to solid support
T1 sequence (Q09472 1049-1156 limits assumed): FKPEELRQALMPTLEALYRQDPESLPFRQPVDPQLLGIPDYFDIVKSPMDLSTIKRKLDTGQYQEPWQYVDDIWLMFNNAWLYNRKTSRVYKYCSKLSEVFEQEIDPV
Description: as §1

PBRM1(2) = target: T2, PBRM1(2) (Homo sapiens, UniProt Q86U86); assay: BromoScan single-point screen; assay type: binding; conditions: percent of protein captured on solid support vs control
T2 construct: utilizing DNA-tagged bromodomain and immobilized ligand attached to solid support
T2 sequence (Q86U86 177-287 limits assumed): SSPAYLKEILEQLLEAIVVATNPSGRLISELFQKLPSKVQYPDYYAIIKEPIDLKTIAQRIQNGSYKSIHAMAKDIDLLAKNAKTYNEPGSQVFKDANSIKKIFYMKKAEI
Description: as §1

BRD3(2) = target: T3, BRD3(2) (Homo sapiens, UniProt Q15059); assay: BromoScan single-point screen; assay type: binding; conditions: percent of protein captured on solid support vs control
T3 construct: utilizing DNA-tagged bromodomain and immobilized ligand attached to solid support
T3 sequence (Q15059 306-415 limits assumed): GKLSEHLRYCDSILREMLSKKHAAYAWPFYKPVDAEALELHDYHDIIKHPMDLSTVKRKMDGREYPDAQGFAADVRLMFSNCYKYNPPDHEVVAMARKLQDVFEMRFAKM
Description: as §1

BRPF1 = target: T4, BRPF1 (Homo sapiens, UniProt P55201); assay: BromoScan single-point screen; assay type: binding; conditions: percent of protein captured on solid support vs control
T4 construct: utilizing DNA-tagged bromodomain and immobilized ligand attached to solid support
T4 sequence (P55201 628-732 limits assumed): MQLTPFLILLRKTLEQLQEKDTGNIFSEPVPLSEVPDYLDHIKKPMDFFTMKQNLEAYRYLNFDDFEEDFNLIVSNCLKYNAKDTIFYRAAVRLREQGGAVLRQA
Description: as §1

PBRM1(5) = target: T5, PBRM1(5) (Homo sapiens, UniProt Q86U86); assay: BromoScan single-point screen; assay type: binding; conditions: percent of protein captured on solid support vs control
T5 construct: utilizing DNA-tagged bromodomain and immobilized ligand attached to solid support
T5 sequence (Q86U86 653-763 limits assumed): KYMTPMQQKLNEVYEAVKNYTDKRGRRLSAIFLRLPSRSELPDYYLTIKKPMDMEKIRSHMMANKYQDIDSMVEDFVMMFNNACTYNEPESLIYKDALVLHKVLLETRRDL
Description: as §1

BRD2(1) = target: T6, BRD2(1) (Homo sapiens, UniProt P25440); assay: BromoScan single-point screen; assay type: binding; conditions: percent of protein captured on solid support vs control
T6 construct: utilizing DNA-tagged bromodomain and immobilized ligand attached to solid support
T6 sequence (P25440 74-180 limits assumed): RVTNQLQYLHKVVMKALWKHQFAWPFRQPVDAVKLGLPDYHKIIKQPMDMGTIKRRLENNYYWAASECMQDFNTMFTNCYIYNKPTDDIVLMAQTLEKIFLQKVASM
Description: as §1

BAZ^2A = target: T7, BAZ^2A (Homo sapiens, UniProt Q9UIF9); assay: BromoScan single-point screen; assay type: binding; conditions: percent of protein captured on solid support vs control
T7 construct: utilizing DNA-tagged bromodomain and immobilized ligand attached to solid support
T7 sequence (Q9UIF9 1793-1897 limits assumed): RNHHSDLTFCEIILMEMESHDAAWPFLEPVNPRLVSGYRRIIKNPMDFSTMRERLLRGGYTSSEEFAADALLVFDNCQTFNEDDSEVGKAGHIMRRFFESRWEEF
Description: as §1

BRD7 [4] = target: T8, BRD7 (Homo sapiens, UniProt Q9NPI1); assay: BromoScan single-point screen; assay type: binding; conditions: percent of protein captured on solid support vs control
T8 construct: utilizing DNA-tagged bromodomain and immobilized ligand attached to solid support
Description: as §1
T8 sequence (Q9NPI1 131-235 limits assumed): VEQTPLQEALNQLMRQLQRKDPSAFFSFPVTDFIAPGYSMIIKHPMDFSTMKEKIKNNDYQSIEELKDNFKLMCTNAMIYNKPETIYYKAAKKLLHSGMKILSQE

TAF1L(2) = target: T9, TAF1L(2) (Homo sapiens, UniProt Q8IZX4); assay: BromoScan single-point screen; assay type: binding; conditions: percent of protein captured on solid support vs control
T9 construct: utilizing DNA-tagged bromodomain and immobilized ligand attached to solid support
T9 sequence (Q8IZX4 1517-1626 limits assumed): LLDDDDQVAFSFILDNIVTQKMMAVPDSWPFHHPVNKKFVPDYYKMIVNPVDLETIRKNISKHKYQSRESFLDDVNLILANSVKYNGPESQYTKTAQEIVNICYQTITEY
Description: as §1

BRD3(1) = target: T10, BRD3(1) (Homo sapiens, UniProt Q15059); assay: BromoScan single-point screen; assay type: binding; conditions: percent of protein captured on solid support vs control
T10 construct: utilizing DNA-tagged bromodomain and immobilized ligand attached to solid support
T10 sequence (Q15059 34-140 limits assumed): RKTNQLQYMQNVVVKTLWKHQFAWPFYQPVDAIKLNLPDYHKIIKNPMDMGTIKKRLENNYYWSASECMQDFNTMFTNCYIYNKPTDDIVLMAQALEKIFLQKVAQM
Description: as §1

BRDT(1) = target: T11, BRDT(1) (Homo sapiens, UniProt Q58F21); assay: BromoScan single-point screen; assay type: binding; conditions: percent of protein captured on solid support vs control
T11 construct: utilizing DNA-tagged bromodomain and immobilized ligand attached to solid support
Description: as §1

SMARCA2 = target: T12, SMARCA2 (Homo sapiens, UniProt P51531); assay: BromoScan single-point screen; assay type: binding; conditions: percent of protein captured on solid support vs control
T12 construct: utilizing DNA-tagged bromodomain and immobilized ligand attached to solid support
T12 sequence (P51531 1378-1506 limits assumed): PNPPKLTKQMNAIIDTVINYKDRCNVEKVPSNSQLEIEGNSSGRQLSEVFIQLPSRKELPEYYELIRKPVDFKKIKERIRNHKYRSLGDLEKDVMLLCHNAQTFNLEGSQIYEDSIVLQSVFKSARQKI
Description: as §1

ATAD2B = target: T13, ATAD2B (Homo sapiens, UniProt Q9ULI0); assay: BromoScan single-point screen; assay type: binding; conditions: percent of protein captured on solid support vs control
T13 construct: utilizing DNA-tagged bromodomain and immobilized ligand attached to solid support
T13 sequence (Q9ULI0 951-1066 limits assumed): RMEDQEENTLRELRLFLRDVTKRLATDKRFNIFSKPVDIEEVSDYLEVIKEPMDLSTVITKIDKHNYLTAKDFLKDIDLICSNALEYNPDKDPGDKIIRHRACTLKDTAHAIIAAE
Description: as §1

BRD1 = target: T14, BRD1 (Homo sapiens, UniProt O95696); assay: BromoScan single-point screen; assay type: binding; conditions: percent of protein captured on solid support vs control
T14 construct: utilizing DNA-tagged bromodomain and immobilized ligand attached to solid support
T14 sequence (O95696 562-666 limits assumed): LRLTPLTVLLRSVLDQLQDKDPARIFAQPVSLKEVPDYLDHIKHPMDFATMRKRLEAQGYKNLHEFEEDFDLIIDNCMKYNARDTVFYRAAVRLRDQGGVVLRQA
Description: as §1

WDR9(2) = target: T15, WDR9(2) (Homo sapiens, UniProt Q9NSI6); assay: BromoScan single-point screen; assay type: binding; conditions: percent of protein captured on solid support vs control
T15 construct: utilizing DNA-tagged bromodomain and immobilized ligand attached to solid support
T15 sequence (Q9NSI6 1313-1418 limits assumed): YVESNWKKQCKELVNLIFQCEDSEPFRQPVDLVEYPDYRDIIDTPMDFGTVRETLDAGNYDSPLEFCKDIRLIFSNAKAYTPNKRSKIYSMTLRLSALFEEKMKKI
Description: as §1

BRDT(2) = target: T16, BRDT(2) (Homo sapiens, UniProt Q58F21); assay: BromoScan single-point screen; assay type: binding; conditions: percent of protein captured on solid support vs control
T16 construct: utilizing DNA-tagged bromodomain and immobilized ligand attached to solid support
Description: as §1

SMARCA4 = target: T17, SMARCA4 (Homo sapiens, UniProt P51532); assay: BromoScan single-point screen; assay type: binding; conditions: percent of protein captured on solid support vs control
T17 construct: utilizing DNA-tagged bromodomain and immobilized ligand attached to solid support
T17 sequence (P51532 1453-1564 limits assumed): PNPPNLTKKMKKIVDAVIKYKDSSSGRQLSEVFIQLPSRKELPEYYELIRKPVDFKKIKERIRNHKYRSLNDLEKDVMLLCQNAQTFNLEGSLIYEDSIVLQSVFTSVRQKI
Description: as §1

TRIM24 (PHD, Bromo.) = target: T18, TRIM24 (PHD, Bromo.) (Homo sapiens, UniProt O15164); assay: BromoScan single-point screen; assay type: binding; conditions: percent of protein captured on solid support vs control
T18 construct: utilizing DNA-tagged bromodomain and immobilized ligand attached to solid support
T18 sequence (O15164 824-1006 limits assumed): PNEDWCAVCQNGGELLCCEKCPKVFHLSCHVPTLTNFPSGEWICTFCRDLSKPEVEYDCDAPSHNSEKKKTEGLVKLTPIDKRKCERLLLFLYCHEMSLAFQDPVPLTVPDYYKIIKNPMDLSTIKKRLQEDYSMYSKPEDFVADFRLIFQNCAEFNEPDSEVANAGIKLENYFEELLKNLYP
Description: as §1

BAZ^2B = target: T19, BAZ^2B (Homo sapiens, UniProt Q9UIF8); assay: BromoScan single-point screen; assay type: binding; conditions: percent of protein captured on solid support vs control
T19 construct: utilizing DNA-tagged bromodomain and immobilized ligand attached to solid support
T19 sequence (Q9UIF8 2060-2164 limits assumed): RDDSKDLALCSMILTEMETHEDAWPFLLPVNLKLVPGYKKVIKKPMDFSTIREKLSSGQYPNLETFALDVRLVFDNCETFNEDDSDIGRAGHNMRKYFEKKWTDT
Description: as §1

GCN5L2 = target: T20, GCN5L2 (Homo sapiens, UniProt Q92830); assay: BromoScan single-point screen; assay type: binding; conditions: percent of protein captured on solid support vs control
T20 construct: utilizing DNA-tagged bromodomain and immobilized ligand attached to solid support
T20 sequence (Q92830 728-832 limits assumed): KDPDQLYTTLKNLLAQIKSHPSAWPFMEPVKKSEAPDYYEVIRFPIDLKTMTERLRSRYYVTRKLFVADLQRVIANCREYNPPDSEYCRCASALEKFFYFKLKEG
Description: as §1

BRD2(2) = target: T21, BRD2(2) (Homo sapiens, UniProt P25440); assay: BromoScan single-point screen; assay type: binding; conditions: percent of protein captured on solid support vs control
T21 construct: utilizing DNA-tagged bromodomain and immobilized ligand attached to solid support
T21 sequence (P25440 344-453 limits assumed): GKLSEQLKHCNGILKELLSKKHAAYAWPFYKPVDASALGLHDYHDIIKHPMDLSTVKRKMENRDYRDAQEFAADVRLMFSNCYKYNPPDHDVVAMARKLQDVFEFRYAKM
Description: as §1

BRPF3 = target: T22, BRPF3 (Homo sapiens, UniProt Q9ULD4); assay: BromoScan single-point screen; assay type: binding; conditions: percent of protein captured on solid support vs control
T22 construct: utilizing DNA-tagged bromodomain and immobilized ligand attached to solid support
T22 sequence (Q9ULD4 589-693 limits assumed): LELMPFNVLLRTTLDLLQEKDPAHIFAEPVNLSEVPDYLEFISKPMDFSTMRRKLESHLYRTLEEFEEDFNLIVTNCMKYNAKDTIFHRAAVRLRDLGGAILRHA
Description: as §1

CECR2 = target: T23, CECR2 (Homo sapiens, UniProt Q9BXF3); assay: BromoScan single-point screen; assay type: binding; conditions: percent of protein captured on solid support vs control
T23 construct: utilizing DNA-tagged bromodomain and immobilized ligand attached to solid support
T23 sequence (Q9BXF3 434-538 limits assumed): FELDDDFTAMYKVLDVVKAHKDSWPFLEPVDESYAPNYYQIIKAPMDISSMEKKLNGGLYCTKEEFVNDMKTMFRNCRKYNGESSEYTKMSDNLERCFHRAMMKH
Description: as §1

TAF1(2) = target: T24, TAF1(2) (Homo sapiens, UniProt P21675); assay: BromoScan single-point screen; assay type: binding; conditions: percent of protein captured on solid support vs control
T24 construct: utilizing DNA-tagged bromodomain and immobilized ligand attached to solid support
T24 sequence (P21675 1519-1628 limits assumed): as the sequence (Q8IZX4 1517-1626 limits assumed) above, with M46V, V51M, I102V, I107L counted along it
Description: as §1

ATAD2A = target: T25, ATAD2A (Homo sapiens, UniProt Q6PL18); assay: BromoScan single-point screen; assay type: binding; conditions: percent of protein captured on solid support vs control
T25 construct: utilizing DNA-tagged bromodomain and immobilized ligand attached to solid support
T25 sequence (Q6PL18 980-1092 limits assumed): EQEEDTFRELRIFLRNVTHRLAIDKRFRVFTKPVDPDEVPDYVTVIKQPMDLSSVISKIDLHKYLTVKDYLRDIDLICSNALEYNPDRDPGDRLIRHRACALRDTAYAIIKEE
Description: as §1

CREBBP = target: T26, CREBBP (Homo sapiens, UniProt Q92793); assay: BromoScan single-point screen; assay type: binding; conditions: percent of protein captured on solid support vs control
T26 construct: utilizing DNA-tagged bromodomain and immobilized ligand attached to solid support
T26 sequence (Q92793 1085-1192 limits assumed): as the sequence (Q09472 1049-1156 limits assumed) above, with S47N, I73V, Y93F, S98A counted along it
Description: as §1

PCAF = target: T27, PCAF (Homo sapiens, UniProt Q92831); assay: BromoScan single-point screen; assay type: binding; conditions: percent of protein captured on solid support vs control
T27 construct: utilizing DNA-tagged bromodomain and immobilized ligand attached to solid support
T27 sequence (Q92831 723-827 limits assumed): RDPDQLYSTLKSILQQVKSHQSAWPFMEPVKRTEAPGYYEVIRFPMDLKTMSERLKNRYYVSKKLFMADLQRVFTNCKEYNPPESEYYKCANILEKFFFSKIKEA
Description: as §1

FALZ = target: T28, FALZ (Homo sapiens, UniProt Q12830); assay: BromoScan single-point screen; assay type: binding; conditions: percent of protein captured on solid support vs control
T28 construct: utilizing DNA-tagged bromodomain and immobilized ligand attached to solid support
Description: as §1

SMILES: COc1cc(-c2cn(C)c(=O)c3cnccc23)cc(OC)c1CN(C)CC(=O)NCCOCCOCCNc1cccc2c1C(=O)N(C1CCC(=O)NC1=O)C2=O (centres unmarked) [Compound I-25]
- bromodomain interaction profile [1]: exclusive interaction with BRD9; also recorded: exclusively interacts with BRD9
- BRD7 degradation (immunoblot) (BRD7 [2]): not able to induce degradation of BRD7 at any of the concentrations
- efficacy on viability [3]: comparable efficacy
- % Ctrl @ 1 μM (TRIM33 (PHD, Bromo.)): 100 % Ctrl
- % Ctrl @ 1 μM (EP300): 88 % Ctrl
- % Ctrl @ 1 μM (PBRM1(2)): 79 % Ctrl
- % Ctrl @ 1 μM (BRD3(2)): 85 % Ctrl
- % Ctrl @ 1 μM (BRPF1): 75 % Ctrl
- % Ctrl @ 1 μM (PBRM1(5)): 89 % Ctrl
- % Ctrl @ 1 μM (BRD2(1)): 81 % Ctrl
- % Ctrl @ 1 μM (BAZ^2A): 62 % Ctrl
- % Ctrl @ 1 μM (BRD7 [4]): 25 % Ctrl
- % Ctrl @ 1 μM (TAF1L(2)): 80 % Ctrl
- % Ctrl @ 1 μM (BRD3(1)): 87 % Ctrl
- % Ctrl @ 1 μM (BRDT(1)): 90 % Ctrl
- % Ctrl @ 1 μM (SMARCA2): 70 % Ctrl
- % Ctrl @ 1 μM (ATAD2B): 81 % Ctrl
- % Ctrl @ 1 μM (BRD1): 75 % Ctrl
- % Ctrl @ 1 μM (WDR9(2)): 86 % Ctrl
- % Ctrl @ 1 μM (BRDT(2)): 83 % Ctrl
- % Ctrl @ 1 μM (SMARCA4): 57 % Ctrl
- % Ctrl @ 1 μM (TRIM24 (PHD, Bromo.)): 98 % Ctrl
- % Ctrl @ 1 μM (BAZ^2B): 75 % Ctrl
- % Ctrl @ 1 μM (GCN5L2): 77 % Ctrl
- % Ctrl @ 1 μM (BRD2(2)): 93 % Ctrl
- % Ctrl @ 1 μM (BRPF3): 86 % Ctrl
- % Ctrl @ 1 μM (CECR2): 14 % Ctrl
- % Ctrl @ 1 μM (TAF1(2)): 63 % Ctrl
- % Ctrl @ 1 μM (ATAD2A): 94 % Ctrl
- % Ctrl @ 1 μM (CREBBP): 88 % Ctrl
- % Ctrl @ 1 μM (PCAF): 67 % Ctrl
- % Ctrl @ 1 μM (FALZ): 79 % Ctrl
